From patent US20260216294A1, “BETA 2-ADRENERGIC RECEPTOR AGONISTS FOR TREATMENT OR PREVENTION OF MUSCLE WASTING” (ATROGI AB, priority 2023, published 2026)

What was measured:
L6-myotubes [1] = test: Measurement of intracellular cAMP levels in differentiated L6-myotubes (Biological Example 3); format: cell-based; settings: for Emax at 10 µM: 0.25 h
Protocol: (§1) Compounds described in publications referenced and incorporated herein were screened in accordance with the procedures outlined in Biological example 2 and Biological example 3.
Differentiated L6-myotubes were serum-starved overnight and stimulated with isoprenaline or the test compound with a final concentration of 1×10^−5 M, for 15 min in stimulation buffer (HBSS supplemented with 1% BSA, 5 mM HEPES and 1 mM IBMX, pH 7.4). The medium was aspirated and 100 μL of 95% EtOH was added to each well of the 24-well plate and cells were kept at −20° C. overnight. The EtOH was allowed to evaporate and 500 μL of lysis buffer (1% BSA, 5 mM HEPES and 0.3% Tween-20, pH 7.4) was added to each well. The plate was kept at −80° C. for 30 min and then at −20° C. until the day of detection when the samples were thawed. Intracellular cAMP levels were detected using an alpha screen cAMP kit (6760635D from Perkin Elmer).

L6-myotubes [2] = test: Glucose uptake in differentiated L6-myotubes (Biological Example 2); format: cell-based; settings: for Emax at 10 µM: read-out: Biological example 2 (GU)
Protocol: as §1
Differentiated L6-myotubes were serum-starved overnight in medium containing 0.5% fatty-acid free BSA and stimulated with isoprenaline or the test compound, with a final concentration of 1×10^−5 M. After 1 h 40 min the cells were washed with warm glucose free medium or PBS twice and another portion of agonist was added to the glucose free medium. After 20 min the cells were exposed to 50 nM ^3H-2-deoxyglucose for 10 min before washed with ice cold glucose free medium or PBS three times and lysed with 0.2 M NaOH, 400 μL/well, for 1 h at 60° C. The cell lysate was mixed with 4 mL scintillation buffer (Emulsifier Safe, Perkin Elmer) and the radioactivity was detected in a […] (Tri-Carb 4810TR, Perkin Elmer).

[3] = intracellular cAMP in differentiated L6-myotubes, compound at 10 μM, activity relative to isoproterenol at 10 μM
[4] = glucose uptake in differentiated L6-myotubes, compound at 10 μM, activity relative to isoproterenol at 10 μM
[5] = intracellular cAMP, compound at 10 μM relative to isoproterenol at 10 μM
[6] = glucose uptake, compound at 10 μM relative to isoproterenol at 10 μM

| Structure (SMILES) | Emax at 10 µM (L6-myotubes [1]; [3]) [%] | Emax at 10 µM (L6-myotubes [2]; [4]) [%] | Emax at 10 µM (L6-myotubes [1]; [5]) [%] | Emax at 10 µM (L6-myotubes [2]; [6]) [%] | also measured |
| --- | --- | --- | --- | --- | --- |
| O[C@H](c1cccc(F)c1)C12CCC(Cc3ccc(OC(F)(F)F)cc3)(CC1)N2 [Compound 500, (S)-(m-fluorophenyl){4-[(p-trifluoromethoxyphenyl)methyl]-7-azabicyclo[[2.2.1]]hept-1-yl}methanol] | < 25 | < 25 |  |  |  |
| CCOC(=O)CO[C@H]1CC[C@H](C(C)(C)NC[C@H](O)c2cncc(F)c2)CC1 [Compound 409, ethyl[[(1R,4r)-4-{1-[(R)-2-(5-fluoro-3-pyridyl)-2-hydroxyethylamino]-1-methylethyl}cyclohexyloxy]]acetate] | < 25 | > 75 |  |  |  |
| CC(C)(C)NC[C@H](O)c1ccc(F)cc1O [Compound 80, (R)-2-(tert-butylamino)-1-(4-fluoro-2-hydroxyphenyl)-1-ethanol] |  |  | < 25 | 50 to 75 |  |
| CO[C@H]1CC[C@@H](CC(C)(C)NC[C@H](O)c2cccc(F)c2)CC1 [Compound 247, (R)-2-{1,1-dimethyl-2-[(1s,4S)-4-methoxycyclohexyl]ethylamino}-1-(m-fluorophenyl)-1-ethanol] | < 25 | > 75 |  |  |  |
| O[C@@H](CNCC[C@H]1CC[C@@H](OCc2ccccc2)CC1)c1cncc(F)c1 [Compound 291, (R)-1-(5-fluoro-3-pyridyl)-2-{2-[(1s,4S)-4-(benzyloxy)cyclohexyl]ethylamino}-1-ethanol] | < 25 | 50 to 75 |  |  |  |
| CCC[C@@H]1CCC[C@@H]([C@H](O)c2cccc(F)c2)N1 [Compound 116] |  |  | < 25 | 25 to 50 |  |
| CC(C)(CC[C@H]1CC[C@@H](O)CC1)NC[C@H](O)c1ccccc1F [Compound 320, (R)-2-{1,1-dimethyl-3-[(1s,4R)-4-hydroxycyclohexyl]propylamino}-1-(o-fluorophenyl)-1-ethanol] | 25 to 50 | > 75 |  |  |  |
| CC12CCC([C@@H](O)c3ccccc3F)(CC1)N2 [Compound 180, (S)-(o-fluorophenyl)(4-methyl-7-azabicyclo[[2.2.1]]hept-1-yl)methanol] |  |  | < 25 | > 75 |  |
| COc1ccc(CCC23CCC([C@@H](O)c4cncc(F)c4)(CC2)N3)cc1 [Compound 541, (S)-(5-fluoro-3-pyridyl){4-[2-(p-methoxyphenyl)ethyl]-7-azabicyclo[[2.2.1]]hept-1-yl}methanol] | < 25 | < 25 |  |  |  |
| O[C@@H](CNCCC[C@H]1CC[C@@H](O)CC1)c1cncc(F)c1 [Compound 304, (R)-1-(5-fluoro-3-pyridyl)-2-{3-[(1s,4R)-4-hydroxycyclohexyl]propylamino}-1-ethanol] | < 25 | 50 to 75 |  |  |  |
| CS(=O)(=O)N(Cc1ccccc1)[C@H]1CC[C@@H](C[C@@H]2CC[C@H]([C@@H](O)c3cccc(F)c3)N2)CC1 [Compound 509, (S)-[(2R,5S)-5-({(1s,4R)-4-[(benzyl)-N-mesylamino]cyclohexyl}methyl)-2-pyrrolidinyl](m-fluorophenyl)methanol] | < 25 | < 25 |  |  |  |
| O[C@H](c1cccc(F)c1)[C@H]1CCC2(CC2)N1 [Compound 170, (R)-{(R)-4-aza-5-spiro[2.4]heptyl}(m-fluorophenyl)methanol] |  |  | < 25 | 50 to 75 |  |
| O[C@@H](c1cncc(F)c1)C12CCC(CCCc3ccccc3)(CC1)N2 [Compound 531, (S)-(5-fluoro-3-pyridyl){4-(3-phenylpropyl)-7-azabicyclo[[2.2.1]]hept-1-yl}methanol] | < 25 | 50 to 75 |  |  |  |
| CCC[C@@H]1CC[C@@H]([C@@H](O)c2cccc(F)c2)N1 [Compound 133, (S)-[(2,5R)-5-propyl-2-pyrrolidinyl](m-fluorophenyl)methanol] |  |  | < 25 | 50 to 75 |  |
| CC1(C)CCC[C@H]([C@H](O)c2ccccc2Cl)N1 [Compound 162, (R)-[(R)-6,6-dimethyl-2-piperidyl](o-chlorophenyl)methanol] |  |  | < 25 | 25 to 50 |  |
| CC1(C)CC[C@H]([C@H](O)c2cncc(F)c2)N1 [Compound 157, (R)-[(R)-5,5-dimethyl-2-pyrrolidinyl](5-fluoro-3-pyridyl)methanol] |  |  | < 25 | > 75 |  |

| Structure (SMILES) | Emax at 10 µM (L6-myotubes [1]; [3]) [%] | Emax at 10 µM (L6-myotubes [2]; [4]) [%] | Emax at 10 µM (L6-myotubes [1]; [5]) [%] | Emax at 10 µM (L6-myotubes [2]; [6]) [%] | also measured |
| --- | --- | --- | --- | --- | --- |
| CS(=O)(=O)N(Cc1ccccc1)[C@H]1CC[C@H](C[C@@H]2CC[C@H]([C@H](O)c3cccc(F)c3)N2)CC1 [Compound 502] | < 25 | < 25 |  |  |  |
| C[C@H]1CC[C@@H]([C@@H](O)c2ccccc2)N1 (racemic) [Compound 39, Racemic mixture of (R)-[(2R,5R)-5-methyl-2-pyrrolidinyl] phenylmethanol and (S)-[(2S,5S)-5-methyl-2-pyrrolidinyl] phenylmethanol] |  |  | < 25 | 50 to 75 |  |
| CCCCNC[C@H](O)c1cnc(NC(=O)C(C)C)s1 [Compound 74, N-{5-[(S)-2-(butylamino)-1-hydroxyethyl]-1,3-thiazol-2-yl}2-methylpropionamide] |  |  | < 25 | 25 to 50 |  |
| CO[C@H]1CC[C@H](C[C@@H]2CC[C@H]([C@H](O)c3ccccc3F)N2)CC1 [Compound 337, (R)-[(2R,5S)-5-{[(1r,4S)-4-methoxycyclohexyl]methyl}-2-pyrrolidinyl] (o-fluorophenyl)methanol] | < 25 | > 75 |  |  |  |
| CCC[C@H]1CCC[C@H]([C@H](O)c2ccccc2F)N1 [Compound 93, (R)-[(2R,6S)-6-propyl-2-piperidyl](o-fluorophenyl)methanol] |  |  | < 25 | 25 to 50 |  |
| COC(=O)[C@H]1CC[C@@H](CC(C)(C)NC[C@H](O)c2cncc(F)c2)CC1 [Compound 322, methyl (1S,4s)-4-{2-[(R)-2-(5-fluoro-3-pyridyl)-2-hydroxyethylamino]-2-methylpropyl} cyclohexanecarboxylate] | < 25 | > 75 |  |  |  |
| CO[C@@H]1CCC[C@H](C(C)(C)NC[C@H](O)c2cncc(F)c2)C1 [Compound 257, (R)-2-{1-[(1S,3R)-3-methoxycyclohexyl]-1-methylethylamino}-1-(5-fluoro-3-pyridyl)-1-ethanol] | < 25 | 50 to 75 |  |  |  |
| CCC[C@H]1CCCC[C@@H]([C@H](O)c2cncc(F)c2)N1 [Compound 234, (R)-[(2S,7S)-7-propyl-2-azepanyl](5-fluoro-3-pyridyl)methanol] | < 25 | > 75 |  |  |  |
| CCC[C@@H]1CCC[C@H]([C@@H](O)c2cccc(F)c2)N1 [Compound 60] |  |  | < 25 | 25 to 50 |  |
| CC1(C)CCC[C@@H]([C@@H](O)c2ccccc2F)N1 [Compound 192, (S)-[(S)-6,6-dimethyl-2-piperidyl](o-fluorophenyl)methanol] |  |  | < 25 | 25 to 50 |  |
| CC1(NC[C@H](O)c2cccc(F)c2)CCC1 [Compound 83, (R)-1-(m-fluorophenyl)-2-(1-methylcyclobutylamino)-1-ethanol] |  |  | 25 to 50 | > 75 |  |
| COc1ccc(C[C@@H]2CC[C@H]([C@H](O)c3cccc(F)c3)N2)cc1 [Compound 373, (R)-{(2R,5S)-5-[(p-methoxyphenyl)methyl]-2-pyrrolidinyl}(m-fluorophenyl)methanol] | 25 to 50 | > 75 |  |  |  |
| O[C@@H](c1cccc(F)c1)C12CCC(CCc3cccnc3)(CC1)N2 [Compound 446, (R)-(m-fluorophenyl){4-[2-(3-pyridyl)ethyl]-7-azabicyclo[[2.2.1]]hept-1-yl}methanol] |  |  |  |  | Biological example 3 (CAMP) (L6-myotubes [1]; [3]): ++ (if it is between 75 and 50% it is denoted with ++); Biological example 2 (GU) (L6-myotubes [2]; [4]): +++ (If a compound at 10 μM shows activity of more than 75% of that of isoproterenol at 10 μM, the activity is denoted with +++) |
| CO[C@H]1CC[C@H](C[C@H]2CC[C@H]([C@@H](O)c3cncc(F)c3)N2)CC1 [Compound 340, (S)-[(2R,5R)-5-{[(1r,4R)-4-methoxycyclohexyl]methyl}-2-pyrrolidinyl](5-fluoro-3-pyridyl)methanol] | < 25 | 25 to 50 |  |  |  |
| CC(=O)N[C@H]1CC[C@@H](CC(C)(C)NC[C@H](O)c2cccc(C#N)n2)CC1 [Compound 421] | < 25 | > 75 |  |  |  |
| COc1ccc(C[C@@H]2CC[C@H]([C@H](O)c3cncc(F)c3)N2)cc1 [Compound 378, (R)-{(2R,5S)-5-[(p-methoxyphenyl)methyl]-2-pyrrolidinyl}(5-fluoro-3-pyridyl)methanol] | < 25 | > 75 |  |  |  |
